Biological target: beta-hexosaminidase HsHex (Homo sapiens)
Assay: Inhibition of human beta-N-acetylhexosaminidase using p-nitrophenyl glycoside as substrate by spectrometric method

O=C1c2cccc3cccc(c23)C(=O)N1CCNCCN1C(=O)c2cccc3cccc(c23)C1=O
Ki: 3.2 µM
